Several values for one entry are separate records, joined by “and”; a condition that tells them apart may be missing. Identical values can stand only once. Like-named read-outs stand apart in the source and are kept apart here.
What was measured:
[1] = test system: SARS-CoV-2 hCoV-19/Australia/VIC01/2020; experiment: microbe, parasite or virus in culture; type: cell-based
SARS-CoV-2 = type: cell-based; conditions: 25 mg/mL incubated with 10^5 TCID50/mL virus, 37° C., 60 minutes; titrated on Vero cells
[2] = test system: SARS-CoV-2 (2019-nCoV/USA-WA1/2020); experiment: microbe, parasite or virus in culture; type: cell-based; conditions: Day 4 post-infection
[3] = test system: SARS-CoV-2 (hCoV-19/Australia/VIC01/2020); type: cell-based; conditions: 0.345 mg/mL added 0 min to 6 h post-infection; Vero E6; MOI 1; all time points
[4] = test system: SARS-CoV-2 (2019-nCoV/USA-WAl/2020 strain); type: in vivo, human ACE2 transgenic mice K18-hACE2; conditions: 1%, 3% or 5% SPL7013 in PBS intranasally for 7 days (0.5, 1.5, 2.5 mg daily); significant vs control at the highest dose
[5] = test system: SARS-CoV-1 (Urbani) Spike-pseudotyped GFP reporter lentiviral particles; type: cell-based
[6] = test system: SARS-CoV-2 (Wuhan-Hu-1) Spike-pseudotyped GFP reporter lentiviral particles; type: cell-based; conditions: 10 and 30 mg/mL, added 1 hour prior
[7] = target: SARS-CoV-2 spike RBD recombinant protein (Severe acute respiratory syndrome coronavirus 2, UniProt P0DTC2); type: cell-based; conditions: 1 mg/mL in PBS, 1 hour prior to challenge; confocal microscopy
Hep-2 cells = experiment: Product cytotoxicity (TC50), CCK-8 assay; type: cell-based
[8] = Hygroscopic assessment (European Pharmacopoeia 5.11); type: physicochemical
Experimental: A hygroscopic assessment was performed as described in European Pharmacopoeia 5.11. Results from the assay are interpreted as follows: deliquescent -sufficient water is absorbed to form a liquid; very hygroscopic - increase in mass is equal to or greater than 15%; hygroscopic - increase in mass is less than 15% and equal to or greater than 2%; slightly hygroscopic - increase in mass is less than 2% and equal to or greater than 0.2% and not hygroscopic - if increase in mass is less than 0.2%, then the compound is not hygroscopic.

[9] = test system: SARS-CoV-2 2019-nCoV/USA-WAl/2020; experiment: Antiviral activity in primary human bronchial epithelial cells (HBEpC); type: cell-based; conditions: 1.1, 3.3 and 10 mg/mL added 1 hour prior to infection, day 4, maximum
Vero E6 cells [10] = test system: Vero E6 cells
Vero E6 cells [11] = conditions: Day 4
Calu-3 cells = conditions: Day 4
[12] = test system: SARS-CoV-2 (hCoV-19/Australia/VIC01/2020); conditions: mixed with virus for 1 hour prior to infection of Vero E6 cells; n=1
MRC-5 cells = conditions: no virus
Vero cells = conditions: no virus
HCT-8 cells = conditions: no virus
[13] = rats
[14] = test system: Coronavirus strain 229E (ATCC #VR-740); conditions: final 28.76 mg/mL; for CPE in four replicates, Test: MRC-5
[15] = test system: Coronavirus strain NL63 (ZeptoMetrix Corp. #0810228CF); conditions: final 28.76 mg/mL; for CPE in four replicates, Test: Vero
[16] = test system: Coronavirus strain OC43 (ZeptoMetrix Corp. #0810024CF); conditions: final 28.76 mg/mL; for CPE in four replicates, Test: HCT-8
[17] = 60 seconds exposure, dilution (-Log10) -6
[18] = 60 seconds exposure, dilution (-Log10) -7
[19] = 60 minutes exposure, dilution (-Log10) -7
[20] = 60 seconds exposure, listed as SPL7013 aqueous solution
[21] = 60 minutes exposure, dilution (-Log10) -6

Q: Which EC50 ([1]; added 1 hour post-infection, Vero cells, MOI 0.05, CPE by MTT after 4 days) does the source give for astodrimer sodium [SPL7013] here?
A: 400 µg/mL

Q: What about the EC50 ([1]; added 1 hour pre-infection, Vero cells, MOI 0.05, CPE by MTT after 4 days) of the same substance?
A: 420 µg/mL

Q: And the EC50 ([1]; pre- and post-infection assays, read-out: EC50)?
A: 25 µM and 24 µM

Q: What about the viricidal activity (SARS-CoV-2) of the same substance?
A: stopped all virus growth

Q: What about the EC50 ([2]; added 1-hour post-infection, Calu-3) of the same substance?
A: 30 µg/mL

Q: And the EC50 ([2]; added 1-hour post-infection, Vero E6)?
A: 19 µg/mL

Q: What about the EC50 ([2]; added 1-hour pre-infection, Calu-3) of the same substance?
A: 37 µg/mL

Q: And the EC50 ([2]; added 1-hour pre-infection, Vero E6)?
A: 32 µg/mL

Q: What about the EC50 ([2]; added at time of infection, Calu-3) of the same substance?
A: 35 µg/mL

Q: And the EC50 ([2]; added at time of infection, Vero E6)?
A: 20 µg/mL

Q: What about the “infectious virus titer in supernatant (TCID50) at 8 hours post-infection” value [3] of the same substance?
A: below the lower limit of detection

Q: What about the “viral copies (qPCR) in nasal swabs at Day 7” value [4] of the same substance?
A: dose dependent decrease

Q: And the “binding/infection of Vero E6 cells by spike-pseudotyped lentivirus (GFP-positive cells, FACS)” value [5]?
A: potently inhibited

Q: And the “binding/infection of Vero E6 cells by spike-pseudotyped lentivirus (GFP-positive cells, FACS)” value [6]?
A: potently inhibited

Q: And the “binding of SARS-CoV-2 spike protein to cells expressing the hACE2 receptor” value [7]?
A: no detectable binding

Q: What about the “TC50, Best Fit Value” (Hep-2 cells; Post Treatment) of the same substance?
A: 30900 µg/mL

Q: And the “TC50, Best Fit Value” (Hep-2 cells; PreTreatment)?
A: 35640 µg/mL

Q: What about the hygroscopicity class [8] of the same substance?
A: very hygroscopic (increase in mass is equal to or greater than 15%)

Q: And the increase in mass [8]?
A: 21.97%

Q: What about the “reduction of infection in the plaque assay” value [9] of the same substance?
A: up to 95%

Q: What about the “reduction of infection vs virus control by nucleocapsid ELISA” value [9] of the same substance?
A: up to 98%

Q: And the cytotoxicity (Vero E6 cells [10])?
A: not observed

Q: And the CC50 (Vero E6 cells [11])?
A: 15090 µg/mL

Q: And the CC50 (Calu-3 cells)?
A: 21760 µg/mL

Q: And the EC50 [12]?
A: 1.83 µM

Q: What about the “TCID50 (log10), CTC (Cytotoxicity Control)” value (from here on “TCID50 (log10), CTC”) (MRC-5 cells) of the same substance?
A: 1.50 log10

Q: And the “CPE in four replicates, CTC (Cytotoxicity Control)” value (from here on “CPE in four replicates, CTC”) (MRC-5 cells; dilution (-Log10) -2)?
A: 0000

Q: And the “CPE in four replicates, CTC” value (MRC-5 cells; dilution (-Log10) -3)?
A: 0000

Q: And the “CPE in four replicates, CTC” value (MRC-5 cells; dilution (-Log10) -4)?
A: 0000

Q: What about the “TCID50 (log10), CTC” value (Vero cells) of the same substance?
A: 1.50 log10

Q: What about the “CPE in four replicates, CTC” value (Vero cells; dilution (-Log10) -2) of the same substance?
A: 0000

Q: And the “CPE in four replicates, CTC” value (Vero cells; dilution (-Log10) -3)?
A: 0000

Q: And the “CPE in four replicates, CTC” value (Vero cells; dilution (-Log10) -4)?
A: 0000

Q: And the “TCID50 (log10), CTC” value (HCT-8 cells)?
A: 1.50 log10

Q: And the “CPE in four replicates, CTC” value (HCT-8 cells; dilution (-Log10) -2)?
A: 0000

Q: What about the “CPE in four replicates, CTC” value (HCT-8 cells; dilution (-Log10) -3) of the same substance?
A: 0000

Q: And the “CPE in four replicates, CTC” value (HCT-8 cells; dilution (-Log10) -4)?
A: 0000

Q: What about the “SPL7013 in pooled plasma sample” value ([13]; 1% group, one 3 hr sample (called an aberration)) of the same substance?
A: 0.635 µg/mL

Q: What about the “SPL7013 in pooled plasma samples (LLOQ)” value ([13]; 1% or 3% Nasal Spray 4 times daily for 7 days, Day 1 and Day 7, pre-dose to 6 hr, all samples but one) of the same substance?
A: < 0.5 µg/mL

Q: And the “CPE in four replicates, Test” value [14, 17]?
A: 0000

Q: What about the “CPE in four replicates, Test” value [14, 18] of the same substance?
A: 0000

Q: And the “Log10 Reduction” value ([14]; 60 seconds exposure)?
A: 0.75 log10

Q: What about the “Percent Reduction” value ([14]; 60 seconds exposure) of the same substance?
A: 82.22%

Q: What about the “TCID50 (log10), Test” value ([14]; 60 seconds exposure) of the same substance?
A: 5.50 log10

Q: What about the “CPE in four replicates, Test” value ([14]; 60 minutes exposure, dilution (-Log10) -5) of the same substance?
A: +0+0

Q: And the “CPE in four replicates, Test” value [14, 19]?
A: 0000

Q: And the “Log10 Reduction” value ([14]; 60 minutes exposure)?
A: 0.75 log10

Q: What about the “Percent Reduction” value ([14]; 60 minutes exposure) of the same substance?
A: 82.22%

Q: And the “TCID50 (log10), Test” value ([14]; 60 minutes exposure)?
A: 5.25 log10

Q: And the “CPE in four replicates, Test” value [15, 17]?
A: 0000

Q: And the “CPE in four replicates, Test” value [15, 18]?
A: 0000

Q: And the “Log10 Reduction” value ([15]; 60 seconds exposure)?
A: 0.50 log10

Q: And the “TCID50 (log10), Test” value ([15]; 60 seconds exposure)?
A: 5.25 log10

Q: And the “Percent Reduction” value [15, 20]?
A: 68.38%

Q: What about the “CPE in four replicates, Test” value [15, 21] of the same substance?
A: 0000

Q: And the “CPE in four replicates, Test” value [15, 19]?
A: 0000

Q: What about the “Log10 Reduction” value ([15]; 60 minutes exposure) of the same substance?
A: 0.75 log10

Q: What about the “Percent Reduction” value ([15]; 60 minutes exposure) of the same substance?
A: 82.22%

Q: And the “TCID50 (log10), Test” value ([15]; 60 minutes exposure)?
A: 5.00 log10

Q: What about the “CPE in four replicates, Test” value [16, 17] of the same substance?
A: 0000

Q: What about the “CPE in four replicates, Test” value [16, 18] of the same substance?
A: 0000

Q: What about the “Log10 Reduction” value ([16]; 60 seconds exposure) of the same substance?
A: 0.50 log10

Q: And the “TCID50 (log10), Test” value ([16]; 60 seconds exposure)?
A: 5.50 log10

Q: And the “Percent Reduction” value [16, 20]?
A: 68.38%

Q: What about the “CPE in four replicates, Test” value [16, 21] of the same substance?
A: +000

Q: What about the “CPE in four replicates, Test” value [16, 19] of the same substance?
A: 0000

Q: What about the “Log10 Reduction” value ([16]; 60 minutes exposure) of the same substance?
A: 0.50 log10

Q: And the “Percent Reduction” value ([16]; 60 minutes exposure)?
A: 68.38%

Q: And the “TCID50 (log10), Test” value ([16]; 60 minutes exposure)?
A: 5.25 log10
